Series [1] in a line: Compound stability in rat liver microsomes. The series is classed as in vitro ADME. The conditions noted are these: for stability / metabolism in rat liver microsomes (in words): incubated in rat liver microsomes; for half-life at 5 μM / CLint scaled at 5 μM: pH 7.4, rat liver microsomes; for half-life at 5 μM: 0.5 mg protein/mL, compound 5 μM, NADPH 1.0 mM, 37° C.; for CLint scaled at 5 μM: in vivo CLint extrapolated. As to the method: Human or rat liver microsomes incubations were conducted in duplicate in polypropylene tubes. The typical incubation mixtures consisted of human or rat liver microsomes (0.5 mg protein/mL), compounds of interest (5 μM) and NADPH (1.0 mM) in a total volume of 200 μL, potassium phosphate buffer (PBS, 100 mM, pH 7.4). Compounds were dissolved in DMSO and diluted with PBS such that the final concentration of DMSO was 0.05%. The enzymatic reactions were commenced with the addition of protein after a 3-min preincubation and incubated in a water bath open to the air at 37° C. Reactions were terminated at various time points (0, 5, 10, 15, 30, 60 min) by adding equal volume of ice-cold acetonitrile. The samples were stored at −80° C. until LC/MS/MS assays.
The concentrations of compounds in the incubation mixtures of human or rat liver microsomes were determined by a LC/MS/MS method. The ranges of the linearity in the concentration range were determined for each tested compounds.
A parallel incubation was performed using denatured microsomes as the negative control, and reactions were terminated at various time points (0, 15, 60 min) after incubation at 37° C.
Dextromethorphan (70 μM) was selected as the positive control, and reactions were terminated at various time points (0, 5, 10, 15, 30, 60 min) after incubation at 37° C. Both positive and negative control samples were included in each assay to ensure the integrity of the microsomal incubation system.
The concentrations of compounds in human or rat liver microsome incubations were plotted as a percentage of the relevant zero time point control for each reaction. The in vivo CLint were extrapolated (ref: Naritomi Y, Terashita S, Kimura S, Suzuki A, Kagayama A, Sugiyama Y. Prediction of human hepatic clearance from in vivo animal experiments and in vitro metabolic studies with liver microsomes from animals and humans. Drug Metabolism and Disposition 2001, 29: 1316-1324.)

Series [2] addresses c-Met (h) (Homo sapiens (Human), UniProt P08581). The experiment in a line: KINOMEscan competition binding assay, c-Met (h).
Series [3] has as its target KDR (h) (Homo sapiens (Human), UniProt P35968). In words: KINOMEscan competition binding assay, KDR (h).
Series [4] has as its system U87MG glioblastoma cells. The experiment in a line: U87MG tumor xenograft model, tumor growth inhibition. The series is classed as in vivo. The conditions noted are these: nude mice, oral gavage once a day, 12 days. As to the method:
The efficacy of compounds disclosed herein was evaluated in a standard murine model of tumorigenesis. Human tumor cells (U87MG glioblastoma cells from ATCC) were expended in culture, harvested, and injected subcutaneously onto the rear flank of 6-7 week old female athymic nude mice (BALB/cA nu/nu, Hunan SLAC Laboratory Animal, Co.) (n=6-10 for vehicle group and for each dosing group). When tumors reached a volume of 100-250 mm^3, animals were randomly divided into vehicle control (for example, 5% DMSO+70% Captisol® (30%), 7% HCl (pH1), 18% Captisol® (30%); or 7% DMSO, 7% HCl (pH1), 70% Captisol® (30%), 16% Captisol® (30%), or the like) and compound groups. Subsequent administration of compound by oral gavage begins anywhere from day 0 to day 15 post tumor cell challenge and generally continues with once a day for the duration of the experiment.
Progression of tumor growth is assessed by tumor volumes and recorded as a function of time. The long (L) and short (W) axes of the subcutaneous tumors were measured with calipers twice weekly, and the tumor volume (TV) calculated as (L×W^2)/2). TGI was calculated from the difference between the median tumor volumes of vehicle-treated and drug-treated mice, expressed as a percentage of the median tumor volume of the vehicle-treated control group, by the following relation:
[formula] Initial statistical analysis is done by repeated measures analysis of variance (RMANOVA), followed by Scheffe psot hoc testing for multiple comparisons. Vehicle alone (5% DMSO+70% Captisol® (30%), 7% HCl (pH1), 18% Captisol® (30%); or 7% DMSO, 7% HCl (pH1), 70% Captisol® (30%), 16% Captisol® (30%), or the like) is the negative control.

Series [5] can be described thus: Pharmacokinetics after intravenous and oral administration in rats. The series is classed as in vivo, rat. Conditions: for Cl/F / AUC(0-t) / half-life / Vd: iv dosing; for F: oral bioavailability; for AUC(0-t) / half-life / Vd: rat, plasma; for Vd: read-out: Vss. Here is the method: The compounds disclosed herein are assessed in pharmacokinetic studies in mice, rats, dogs or monkeys. The compounds are administered as a water solution, 2% HPMC+1% TWEEN®80 in water solution, 5% DMSO+5% solutol in saline, 4% MC suspension or capsule. For the intravenous administration, the animals are generally given at 1 or 2 mg/kg dose. For the oral (p.o.) dosing, mice and rats are generally given 5 or 10 mg/kg dose, and dogs and monkeys are generally given 10 mg/kg dose. The blood samples (0.3 mL) are drawn at 0.25, 0.5, 1.0, 2.0, 3.0, 4.0, 6.0, 8.0, 12 and 24 h time points or 0.083, 0.25, 0.5, 1.0, 2.0, 4.0, 6.0, 8.0 and 24 h time points and centrifuged at 3,000 or 4000 rpm for 2 to 10 min. The plasma solutions are collected, stored at −20° C. or -70° C. until analyzed by LC/MS/MS as described above.

A word on the half-life: it is how long it takes for the measured level to halve. A word on the CLint scaled: it is the capacity of the preparation to metabolise the compound, expressed as a volume cleared per time. Broadly, the Kd is the constant that tells how readily two partners part at equilibrium. A low value points to a tighter complex. One may read the AUC(0-t) as the area under the concentration-time curve up to a stated or last time point. A higher AUC(0-t) goes with more exposure.

Like-named read-outs stand apart in the source and are kept apart here.

c-Met (h), sequence (P08581 25-1390): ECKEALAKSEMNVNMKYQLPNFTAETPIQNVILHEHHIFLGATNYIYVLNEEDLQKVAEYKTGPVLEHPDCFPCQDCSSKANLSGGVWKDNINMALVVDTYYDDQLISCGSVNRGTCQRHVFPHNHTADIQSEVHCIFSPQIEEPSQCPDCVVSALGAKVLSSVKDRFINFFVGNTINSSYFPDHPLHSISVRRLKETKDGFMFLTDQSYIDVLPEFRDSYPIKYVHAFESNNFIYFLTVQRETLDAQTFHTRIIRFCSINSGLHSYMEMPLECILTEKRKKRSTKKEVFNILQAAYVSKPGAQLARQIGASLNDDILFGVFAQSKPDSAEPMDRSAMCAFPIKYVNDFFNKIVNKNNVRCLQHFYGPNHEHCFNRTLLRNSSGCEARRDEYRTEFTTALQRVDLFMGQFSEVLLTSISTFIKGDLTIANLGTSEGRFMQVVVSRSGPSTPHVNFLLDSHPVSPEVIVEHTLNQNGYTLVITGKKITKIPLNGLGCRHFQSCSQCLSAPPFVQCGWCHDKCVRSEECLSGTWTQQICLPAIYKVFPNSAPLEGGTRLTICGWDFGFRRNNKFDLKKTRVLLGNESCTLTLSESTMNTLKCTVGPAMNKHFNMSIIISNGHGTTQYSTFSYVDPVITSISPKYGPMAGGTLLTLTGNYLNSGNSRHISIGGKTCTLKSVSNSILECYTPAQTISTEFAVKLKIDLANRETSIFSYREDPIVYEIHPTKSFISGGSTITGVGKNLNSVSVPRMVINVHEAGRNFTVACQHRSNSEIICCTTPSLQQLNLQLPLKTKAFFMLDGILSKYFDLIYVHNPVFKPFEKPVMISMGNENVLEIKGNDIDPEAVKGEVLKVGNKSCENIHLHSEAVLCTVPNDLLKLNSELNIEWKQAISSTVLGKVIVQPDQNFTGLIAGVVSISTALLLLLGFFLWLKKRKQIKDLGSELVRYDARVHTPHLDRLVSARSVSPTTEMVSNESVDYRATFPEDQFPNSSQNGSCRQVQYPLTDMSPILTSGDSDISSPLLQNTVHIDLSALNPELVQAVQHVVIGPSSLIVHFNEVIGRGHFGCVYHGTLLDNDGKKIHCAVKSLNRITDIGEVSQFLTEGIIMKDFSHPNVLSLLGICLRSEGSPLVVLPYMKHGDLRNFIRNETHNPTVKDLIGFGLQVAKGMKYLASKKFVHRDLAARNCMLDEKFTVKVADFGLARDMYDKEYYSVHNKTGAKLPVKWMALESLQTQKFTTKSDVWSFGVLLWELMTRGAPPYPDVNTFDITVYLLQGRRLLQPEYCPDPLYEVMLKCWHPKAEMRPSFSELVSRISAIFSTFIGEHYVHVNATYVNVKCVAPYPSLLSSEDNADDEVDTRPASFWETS
KDR (h), sequence (P35968 20-1356): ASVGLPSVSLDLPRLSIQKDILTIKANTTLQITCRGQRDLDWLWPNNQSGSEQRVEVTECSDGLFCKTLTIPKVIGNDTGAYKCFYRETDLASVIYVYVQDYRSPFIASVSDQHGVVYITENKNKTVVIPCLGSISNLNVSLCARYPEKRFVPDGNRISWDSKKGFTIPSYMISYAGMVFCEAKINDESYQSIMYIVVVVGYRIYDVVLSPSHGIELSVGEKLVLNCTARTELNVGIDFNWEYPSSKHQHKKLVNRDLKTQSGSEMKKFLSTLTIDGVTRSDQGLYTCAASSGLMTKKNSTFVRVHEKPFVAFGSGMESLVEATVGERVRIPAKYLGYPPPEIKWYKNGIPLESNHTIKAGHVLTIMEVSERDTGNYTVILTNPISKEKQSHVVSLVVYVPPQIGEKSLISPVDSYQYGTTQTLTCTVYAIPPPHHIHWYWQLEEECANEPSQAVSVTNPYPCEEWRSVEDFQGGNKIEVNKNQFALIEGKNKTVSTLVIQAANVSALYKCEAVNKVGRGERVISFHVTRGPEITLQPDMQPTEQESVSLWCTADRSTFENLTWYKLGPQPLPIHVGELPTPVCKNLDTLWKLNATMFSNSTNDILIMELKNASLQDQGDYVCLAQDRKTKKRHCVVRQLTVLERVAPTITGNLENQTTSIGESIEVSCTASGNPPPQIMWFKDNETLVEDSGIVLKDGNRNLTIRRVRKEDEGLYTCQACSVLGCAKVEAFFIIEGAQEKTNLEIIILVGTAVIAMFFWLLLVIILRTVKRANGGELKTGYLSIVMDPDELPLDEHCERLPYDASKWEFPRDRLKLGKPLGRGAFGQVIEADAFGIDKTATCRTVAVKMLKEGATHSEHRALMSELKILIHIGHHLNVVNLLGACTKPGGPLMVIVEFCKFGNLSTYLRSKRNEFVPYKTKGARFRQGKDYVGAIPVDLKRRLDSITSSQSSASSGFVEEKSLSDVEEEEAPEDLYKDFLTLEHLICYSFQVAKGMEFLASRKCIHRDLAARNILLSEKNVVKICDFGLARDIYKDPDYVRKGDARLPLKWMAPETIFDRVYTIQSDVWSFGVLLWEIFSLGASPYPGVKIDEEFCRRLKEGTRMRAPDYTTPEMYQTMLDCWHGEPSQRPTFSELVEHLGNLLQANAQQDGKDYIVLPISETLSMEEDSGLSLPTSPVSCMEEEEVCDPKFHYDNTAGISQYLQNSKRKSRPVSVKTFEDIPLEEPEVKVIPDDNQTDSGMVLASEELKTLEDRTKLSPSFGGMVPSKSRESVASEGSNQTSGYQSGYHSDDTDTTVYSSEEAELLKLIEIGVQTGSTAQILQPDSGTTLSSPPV

As to `Cc1c(C(=O)Nc2ccc(Oc3ccnc(NC(=O)C4CC4)c3)cn2)c(=O)n(-c2ccccc2)n1C` [Example 8, N-(5-((2-(cyclopropanecarboxamido)pyridin-4-yl)oxy)pyridin-2-yl)-1,5-dimethyl-3-oxo-2-phenyl-2,3-dihydro-1H-pyrazole-4-carboxamide], in series [1], the “stability / metabolism in rat liver microsomes (in words)” value (from here on “stability / metabolism”) is given as “little metabolized”, the half-life at 5 μM worked out at 11.7 h and the CLint scaled at 5 μM was 3.53 mL/min/kg. The same molecule gave a Kd in series [2] of 2.4 nM. In addition, in series [3], the Kd was determined as 3.2 nM. Further, the “TGI% (on last day of dosing)” value in series [4] (6 mg/kg) worked out at 32%. Besides, the “TGI% (on last day of dosing)” value in series [4] (30 mg/kg) amounted to 78%. Also, in series [5] (dose 2 mg/kg), the Cl/F was found to be 0.83 mL/min/kg, the AUC(0-t) is 38300 ng·h/mL, the half-life was 4.06 h and the Vd came to 0.27 L/kg. This molecule also displayed a F in series [5] (iv dose 2 mg/kg) of 85.88%.

For `Cc1c(C(=O)Nc2ccc(Oc3ccnc(C(N)=O)c3)c(F)c2)c(=O)n(-c2ccccc2)n1C` [Example 10, 4-(4-(1,5-dimethyl-3-oxo-2-phenyl-2,3-dihydro-1H-pyrazole-4-carboxamido)-2-fluorophenoxy)picolinamide], the values for the Kd in series [2] and in series [3] were 200 nM and 450 nM, respectively.

For the molecule `Cc1c(C(=O)Nc2ccc(Oc3ccnc(NC(=O)C4CC4)c3)c(F)c2)c(=O)n(-c2ccccc2)n1C` [Example 11, N-(4-((2-(cyclopropanecarboxamido)pyridin-4-yl)oxy)-3-fluorophenyl)-1,5-dimethyl-3-oxo-2-phenyl-2,3-dihydro-1H-pyrazole-4-carboxamide], in series [1], the “stability / metabolism” value is reported as “little metabolized”, the half-life at 5 μM was found to be 3.93 h and the CLint scaled at 5 μM was 10.5 mL/min/kg. In addition, the Kd in series [2] came out at 0.5 nM. In series [3], this molecule returned a Kd of 6.3 nM. Further, in series [4] (6 mg/kg), the “TGI% (on last day of dosing)” value turned out to be 56%. Moreover, the “TGI% (on last day of dosing)” value in series [4] (30 mg/kg) amounted to 97%. In addition, in series [5] (dose 1 mg/kg), the Cl/F was determined as 0.83 mL/min/kg, the AUC(0-t) came to 14000 ng·h/mL, the half-life was 4.61 h and the Vd was determined as 0.34 L/kg. Also, in series [5] (iv dose 1 mg/kg), the F stood at 133.5%.

Take `Cc1c(C(=O)Nc2ccc(Oc3ccnc(NC(=O)C4CC4)c3)cc2)c(=O)n(-c2ccccc2)n1C` [Example 16, N-(4-((2-(cyclopropanecarboxamido)pyridin-4-yl)oxy)phenyl)-1,5-dimethyl-3-oxo-2-phenyl-2,3-dihydro-1H-pyrazole-4-carboxamide]: in series [1], the “stability / metabolism” value was “little metabolized”, the half-life at 5 μM is 7.06 h and the CLint scaled at 5 μM is 5.86 mL/min/kg. Besides, the affinity in series [2], expressed as Kd, was 0.21 nM. In addition, the Kd in series [3] is 2.9 nM. Also, in series [5] (dose 1 mg/kg), the Cl/F stood at 0.67 mL/min/kg, the AUC(0-t) is 23400 ng·h/mL, the half-life is 5.95 h and the Vd was found to be 0.31 L/kg. In series [5] (iv dose 1 mg/kg), this molecule had an F of 94.49%.

Source of the values: patent publication US8975282B2, “Substituted pyrazolone compounds and methods of use” (Calitor Sciences, LLC, priority 2012, dated 2015).
